Experimental findings from US12157739B2, “Hypoxanthine compounds” (KISSEI PHARMACEUTICAL CO., LTD., priority 2018, dated 2024) are described below.

Molecules are shown by their SMILES. Where two headings read alike, the source gives them in different places. Where only a bound is given, the exact number is not on record here.

The test system of series [1] is TNBS induced colitis model rat. The series is described as follows: Therapeutic effect in TNBS induced colitis model rat (intestinal permeability of FITC). In kind it is in vivo. Conditions: po, 72 h, SD rats, mean, read-out: Inhibition (%): suppressive rate on the intestinal permeability; for inhibition in vivo at 3 mg/kg: 3 mg/kg orally once a day for 3 days. As to the method:
SD rats: 8-weeks-old male SLC (Japan SLC) were used. Under pentobarbital anesthesia, 300 μL of TNBS (28 mg/mL) which was prepared by 50% ethanol was administered at a point 8 cm from anus in large intestine to cause inflammation. To the solvent-treated group was administrated 300 μL of 50% ethanol. Animals were fasted for 48 hours prior to administration of TNBS. Test compounds (3 mg/kg or 10 mg/kg) prepared by 0.05% methylcellulose solution were orally administered once a day from next day, and it was administered for a total of 3 days. After administering for 3 days, 50 mg/kg FITC was orally administered at 4 hours after administration. Blood samples were collected from jugular vein under isoflurane anesthesia after 4 hours. The serum was centrifuged and fluorescence intensity was detected by PHERAstar FSX (BMG Labtech) to measure the concentration of FITC permeating into circulating blood through the mesentery. The suppressive rate on the intestinal permeability of test compounds was calculated based on the value of test compounds-free group as 0 and the value of TNBS-untreated group as 100.

For a further series, the target named is human PHD2184-418 (Homo sapiens (Human), UniProt Q9GZT9). Nature of the series: PHD2 inhibitory test (fluorescence polarization). It is filed as binding. Conditions: human PHD2184-418, FITC-labeled HIF-1α556-574 substrate, 2 μM 2-oxoglutarate, 37° C. 60 minutes. As to the method:
(1) Expression and Preparation of Human PHD2184-418
Human PHD2184-418 containing amino acid residues 184 to 418 of the protein represented by CAC42509 (GenBank accession ID) was expressed and prepared by the following method.
An expression construct of human PHD2184-418 containing N-terminal histidine tag was introduced into pET-30a (+) vector, and the sequence was confirmed. This vector was introduced into BL21 (DE3) strain and cultured at 37° C. in LB medium containing antibiotics. After culturing, a cell lysis solution was added to the cells, and then the cells were disrupted by sonication. The disrupted suspension was centrifuged and the supernatant was purified by Ni column to give human PHD2184-418.
Human HIF-1α556-574 (FITC-labeled HIF-1α556-574), containing N-terminal FITC-Ahx, containing amino acid residues 556 to 574 (partial peptide) of HIF-1α was used as a substrate. Using FITC-labeled HIF-1α556-574, the competitive inhibition between 2-oxoglutarate and test compounds (PHD inhibitor) was evaluated based on the change in fluorescence polarization by the following method.
An enzyme (human PHD2184-418) and the substrate were diluted with an assay buffer (pH 7.4) containing 10 mM HEPES, 150 mM NaCl, 10 μM MnCl2-4H2O, 2 μM 2-oxoglutarate and 0.05% Tween-20. Test compounds were diluted with DMSO. Test compounds and human PHD2184-418 was added to the 384-well plate (Corning, black, opaque bottom) in advance. The reaction was started by the addition of FITC-labeled HIF-1α556-574. After incubating at 37° C. for 60 minutes, fluorescence polarization (excitation wavelength: 470 nm, fluorescence wavelength: 530 nm) was measured by PHERAstar FSX (BMG Labtech). Fluorescence polarization of each well was measured, and human PHD2 binding inhibitory activity of test compounds was calculated based on the value of test compound-free group.
(In general: Polarisation of emitted light reports the rotation of a fluorescent probe.)

The nature of series [2]: Rat PK study: concentration of compounds in large intestine tissue and plasma. To be noted: male, 3 mg/kg oral, non-fasted SD rats; for Kp at 8 h: large intestine tissue / plasma, read-out: C/P: ratio of Colon and Plasma; for Cmax: read-out: Cmax: maximum plasma concentration. In kind it is in vivo. How it is done: Test compounds (3 mg/kg/5 mL) prepared by 0.05% methylcellulose were orally administered to non-fasted rats (SD, 8-weeks-old, male, Japan SLC). Blood samples were collected from jugular vein at 0.25, 0.5, 1, 2, 4, 6 and 8 hours after the administration. Laparotomy was performed under isoflurane anesthesia and large intestine was isolated. Collected distal large intestine (about 5 cm) was cut open, and then the large intestine was washed with saline on a dish. After washing, the large intestine was minced by a small scissors. About 150 mg thereof was moved to tube. To the tube was added 100 μL of saline, the mixture was homogenized using shake master (1000 rpm×30 minutes). Samples were prepared by the addition with quadruple volume of saline as final volume. The concentrations of the test compound in large intestine tissue and plasma were measured through a quantitative analysis using liquid chromatography-mass spectrometry (LC/MS).
• Cmax: maximum plasma concentration of test compounds in the case of oral administration (ng/mL) • AUC: area under the plasma test compound concentration-time curve (ng*min/mL) • Plasma: plasma test compound concentration after 8 hours (ng/ml) • Colon: concentrations of the test compound in large intestine tissue after 8 hours (ng/g) • C/P: ratio of the above Colon and Plasma

Assay in series [3]: as above
It is filed as in vivo. To be noted: male, plasma, 3 mg/kg oral, non-fasted SD rats, read-out: AUC: area under the plasma test compound concentration-time curve (converted).

[4] abbreviates: large intestine tissue (distal, colon), read-out: Colon: concentration in large intestine tissue after 8 hours.
Where [5] appears, read: plasma, read-out: Plasma: plasma test compound concentration after 8 hours.

Chain of human PHD2184-418 (Q9GZT9 184-418): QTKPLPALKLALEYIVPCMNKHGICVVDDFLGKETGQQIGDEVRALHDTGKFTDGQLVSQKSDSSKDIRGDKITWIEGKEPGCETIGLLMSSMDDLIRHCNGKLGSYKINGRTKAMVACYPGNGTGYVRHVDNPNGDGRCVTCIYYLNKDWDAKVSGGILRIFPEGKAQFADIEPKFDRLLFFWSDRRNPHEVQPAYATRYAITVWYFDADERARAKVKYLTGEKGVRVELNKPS

With `O=C(O)c1cnn(-c2nc3ncn(Cc4ccc(O)cc4)c3c(=O)[nH]2)c1` [Example 3, 1-(7-(4-Hydroxybenzyl)-6-oxo-6,7-dihydro-1H-purin-2-yl)-1H-pyrazole-4-carboxylic acid], in series [1], the inhibition in vivo at 3 mg/kg was found to be 93%. In addition, at human PHD2184-418, the IC50 (in general, the point on the concentration scale where inhibition reaches its midpoint) worked out at 640 nM. The values for the concentration at 8 h in series [2] (setting [4]) and in series [2] (setting [5]) were 87 ng/g and less than 1 ng/mL, respectively. Also, the Kp at 8 h in series [2] is more than 87. In series [2] (plasma), the Cmax was found to be 6 ng/mL. In addition, the AUC in series [3] is 3.27 ng·h/mL.

In the case of `O=C(O)c1ccc(Cn2cnc3nc(-n4cc(C(=O)O)cn4)[nH]c(=O)c32)cc1` [Example 12, 1-(7-(4-Carboxybenzyl)-6-oxo-6,7-dihydro-1H-purin-2-yl)-1H-pyrazole-4-carboxylic acid], the inhibition in vivo at 3 mg/kg in series [1] was 78%. On human PHD2184-418, this molecule registered a concentration for half-maximal inhibition (IC50) of 610 nM. In addition, the concentration at 8 h in series [2] (setting [4]) turned out to be 67 ng/g; in series [2] (setting [5]) it was 2 ng/mL. The Kp at 8 h in series [2] is 34. For the same molecule, the Cmax in series [2] (plasma) was 16 ng/mL. Moreover, the AUC in series [3] was 49.9 ng·h/mL.

`O=C(O)c1cnn(-c2nc3c(ncn3Cc3ccc(O)cc3)c(=O)[nH]2)c1` [Example 29, 1-(9-(4-Hydroxybenzyl)-6-oxo-6,9-dihydro-1H-purin-2-yl)-1H-pyrazole-4-carboxylic acid]: in series [1], the inhibition in vivo at 3 mg/kg amounted to 86%. The same molecule registered an IC50 on human PHD2184-418 of 370 nM. In addition, the concentration at 8 h is 646 ng/g in series [2] (setting [4]) and less than 1 ng/mL in series [2] (setting [5]). In addition, the Kp at 8 h in series [2] is more than 646. Also, the Cmax in series [2] (plasma) was less than 1 ng/mL.

For `COc1ccc(Cn2cnc3c(=O)[nH]c(-n4cc(C(=O)O)cn4)nc32)cc1` [Example 35, 1-(9-(4-Methoxybenzyl)-6-oxo-6,9-dihydro-1H-purin-2-yl)-1H-pyrazole-4-carboxylic acid], the inhibition in vivo at 3 mg/kg in series [1] worked out at 81%. For the same molecule, it took 590 nM to reach half-maximal inhibition against human PHD2184-418 (IC50). Moreover, the concentration at 8 h in series [2] (setting [4]) was 11 ng/g; in series [2] (setting [5]), less than 1 ng/mL. Also, the Kp at 8 h in series [2] was more than 11. In series [2] (plasma), the Cmax is less than 1 ng/mL.

Regarding `Cl.O=C(O)c1cnn(-c2nc3ncn(Cc4ccc(OCCN5CCOCC5)cc4)c3c(=O)[nH]2)c1` [Example 75, 1-(7-(4-(2-Morpholinoethoxy)benzyl)-6-oxo-6,7-dihydro-1H-purin-2-yl)-1H-pyrazole-4-carboxylic acid hydrochloride], the inhibition in vivo at 3 mg/kg in series [1] is 80%. Further, on human PHD2184-418, the IC50 worked out at 420 nM. In addition, the concentration at 8 h was 323 ng/g in series [2] (setting [4]) and 1 ng/mL in series [2] (setting [5]). Also, the Kp at 8 h in series [2] was more than 323. In addition, the Cmax in series [2] (plasma) is 4 ng/mL. For the same molecule, the AUC in series [3] was 12.9 ng·h/mL.

As to `COc1ccc(Cn2cnc3nc(-n4cc(C(=O)O)cn4)[nH]c(=O)c32)cc1` [Example 11, 1-(7-(4-Methoxybenzyl)-6-oxo-6,7-dihydro-1H-purin-2-yl)-1H-pyrazole-4-carboxylic acid], the inhibition in vivo at 3 mg/kg in series [1] came out at 83%. The Cmax in series [2] (plasma) came to 10 ng/mL. In series [3], the AUC is 18.2 ng·h/mL.

Take `CS(=O)(=O)c1ccc(Cn2cnc3nc(-n4cc(C(=O)O)cn4)[nH]c(=O)c32)cc1` [Example 4, 1-(7-(4-(Methylsulfonyl)benzyl)-6-oxo-6,7-dihydro-1H-purin-2-yl)-1H-pyrazole-4-carboxylic acid]: the inhibition in vivo at 3 mg/kg in series [1] is 66%. The molecule also had an IC50 on human PHD2184-418 of 530 nM. In addition, the concentration at 8 h in series [2] (setting [4]) was determined as 94 ng/g; in series [2] (setting [5]) it was 2 ng/mL. Also, the Kp at 8 h in series [2] is 47. Further, the Cmax in series [2] (plasma) was 6 ng/mL. Further, the AUC in series [3] was 29.2 ng·h/mL.

Turning to `O=C(O)c1cnn(-c2nc3ncn(COCc4ccccc4)c3c(=O)[nH]2)c1` [Example 2, 1-(7-((Benzyloxy)methyl)-6-oxo-6,7-dihydro-1H-purin-2-yl)-1H-pyrazole-4-carboxylic acid], the inhibition in vivo at 3 mg/kg in series [1] is 51%. This molecule registered an IC50 on human PHD2184-418 of 640 nM. For the same molecule, the concentration at 8 h in series [2] (setting [4]) was 188 ng/g; in series [2] (setting [5]), less than 1 ng/mL. Besides, in series [2], the Kp at 8 h was more than 188. Moreover, in series [2] (plasma), the Cmax amounted to 3 ng/mL. Also, the AUC in series [3] was 0.833 ng·h/mL.

As to `O=C(O)c1cnn(-c2nc3ncn(Cc4ccc(-c5ccccc5)cc4)c3c(=O)[nH]2)c1` [Example 1, 1-(7-([1,1′-Biphenyl]-4-ylmethyl)-6-oxo-6,7-dihydro-1H-purin-2-yl)-1H-pyrazole-4-carboxylic acid], the inhibition in vivo at 10 mg/kg in series [1] (10 mg/kg orally once a day for 3 days) is 54%. Besides, the concentration for half-maximal inhibition (IC50) against human PHD2184-418 was found to be 90 nM. The concentration at 8 h in series [2] (setting [4]) turned out to be 109 ng/g; in series [2] (setting [5]) it was 3 ng/mL. Further, the Kp at 8 h in series [2] was found to be 36. For the same molecule, the Cmax in series [2] (plasma) came out at 11 ng/mL. In addition, the AUC in series [3] is 46.3 ng·h/mL.
